Measured values published in ChEMBL document CHEMBL1157539, “Thousands of chemical starting points for antimalarial lead identification” (Nature, 2010).

System: Plasmodium falciparum
Assay: GSK_TCMDC: Inhibition of Plasmodium falciparum 3D7 in whole erythrocytes, using parasite LDH activity as an index of growth.
Format: functional, organism-based
Conditions: not given

Row | SMILES | XC50 [nM]
1 | N#Cc1ccc2c(c1)CN(CC[C@H]1CC[C@H](NC(=O)/C=C/c3c[nH]c4ccccc34)CC1)CC2 | 897

Same assay, conditions: Plasmodium falciparum, 3D7

Row | SMILES | XC50 [nM]
2 | c1ccc2c(Nc3ccc(OCCOCCOc4ccc(Nc5c6ccccc6nc6ccccc56)cc4)cc3)c3ccccc3nc2c1 | 284
3 | CC(=O)N(C)c1cccc(C(=O)Nc2ccc(-c3cccc(-c4nc5cc(C(F)(F)F)ccc5[nH]4)c3)cc2)c1 | 724
4 | Cc1cccc(C(=O)NCCCN2CCC(NC(=O)/C=C/c3ccc(Cl)c(Cl)c3)CC2)c1 | 1700
5 | CCOC(=O)c1ccc(OCCCCCCOc2ccc(Br)cc2)cc1 | 777
6 | CC1CN(c2cccc3c2nc(-c2cncc(C#N)c2)n3CCNCc2ccccc2)CC(C)O1 (centres undefined) | 1220
7 | Nc1ncc(-c2ccc(S(=O)(=O)Nc3ccc(C(=O)N[C@@H](CCC(=O)O)C(=O)O)cc3)cc2)c(=O)[nH]1 | 803
8 | CN(Cc1ccc(NC(=O)NC2CCN(C(=O)/C=C/c3ccc(Cl)c(Cl)c3)CC2)cc1)C1CCOCC1 | 876
9 | O=[N+]([O-])c1cccc(-c2ccc(C=NNc3cc(N4CCCC4)nc(N4CCCC4)n3)o2)c1 | 713
10 | COc1ccc2nccc([C@@H](O)CN3CCC(NCc4cnc5c(c4)NC(=O)CS5)C(F)C3)c2c1 (some centres undefined) | 769
11 | COc1ccc(OC(C)CNC(=O)c2cc([N+](=O)[O-])ccc2-c2ccc(OC)cc2)cc1 (centres undefined) | 1150
12 | CN(C)CCOc1cc(NC(=O)Nc2ccc(-c3ccccc3)cc2)ccc1I | 595
13 | Cc1cc(NCCC(=O)NCCOc2ccccc2)nc(Nc2ccccc2)n1 | 1060
14 | C[C@H](NC(=O)c1c(CN2CCC(N3CCCCC3=O)CC2)c(-c2cccs2)nc2ccccc12)C1CCCCC1 | 898
15 | Cc1cccc2nc(-c3ccc(-c4ccc(CNCc5cnn(-c6ccccc6)n5)cc4)s3)[nH]c12 | 718
16 | CC(C)CNCc1ccc(-c2cccc(CN(C(=O)CCC3CCCC3)C3CCN(Cc4ccccc4)CC3)c2)cc1 | 799
17 | Cc1cc(N(C)C)nc(Nc2ccc(NC(=O)CCc3ccccc3)cc2)n1 | 850
18 | CC(C)NCc1ccc(-c2cccc(NC(=O)c3ccc(Cl)cc3)c2)cc1 | 289
19 | Cc1cc(N)c2cc(NC(=O)c3cc(C(F)(F)F)cc(C(F)(F)F)c3)ccc2n1 | 86.8
20 | O=C(/C=C/c1ccc(Cl)c(Cl)c1)NCCCCCN1CCC(NC(=O)Nc2ccc(OC(F)F)cc2)CC1 | 754
21 | O=C(Nc1ccc(-c2nc3ccccc3[nH]2)cc1)c1cnc(Cl)c(Cl)c1 | 728
22 | CCCCCN1CCCN(Cc2cccc(NC(=O)c3ccc(-c4ccccc4)cc3)c2)CC1 | 697
23 | COC(=O)c1cccc(CNCc2cccc(-c3ccc(-c4nc5cc(C(F)(F)F)ccc5[nH]4)cc3)c2)c1 | 257
24 | CN1C(=O)[C@H](NC(=O)[C@@H](Cc2ccccc2)NC(=S)Nc2ccccc2)N=C(c2ccccc2)c2ccccc21 | 855
25 | COc1ccc(NC(=O)c2ccc3cc4ccccc4cc3c2)cc1N1CCN(C)CC1 | 1030

Row | SMILES | XC50 [nM]
26 | CNCC(C)(C)c1nc(-c2ccc(Cl)c(O)c2)c(-c2ccncc2)[nH]1 | 736
27 | COc1ccc2ncc(F)c([C@H](O)CN3CCC(NCc4cc5c(cn4)OCCO5)CC3)c2c1 | 292
28 | N#Cc1ccc2c(c1)CN(CC[C@H]1CC[C@H](NC(=O)/C=C/c3c[nH]c4ccccc34)CC1)CC2 | 986
29 | COc1cccc2cc(C(=O)N[C@@H](CC(C)C)C(=O)N[C@H](/C=N/NC(=O)OC(C)(C)C)CC(=O)OC(C)(C)C)oc12 | 403
30 | Cc1cccc2nc(-c3ccc(-c4ccc(CNCCNC(=O)c5ccnn5C)cc4)cc3)[nH]c12 | 480
31 | COc1ccccc1Cc1nc2ccccc2nc1SCC(=O)Nc1cccc(C(F)(F)F)c1 | 499
32 | Nc1ccnc(N2CCC(CCOc3cc(C(F)(F)F)nc4c(C(F)(F)F)cccc34)CC2)c1 | 792
33 | N#Cc1ccc2c(c1)CN(CCC1CCC(NC(=O)c3cc4ccccc4cc3N)CC1)CC2 (centres undefined) | 1040
34 | Cn1cc(-c2ccnc3[nH]c(-c4cccc(CNC5CCC(O)CC5)c4)cc23)cn1 (centres undefined) | 903
35 | Nc1ccc(-c2cnc3[nH]cc(-c4ccc(C(=O)O)cc4)c3c2)cn1 | 964
36 | CCC(c1ccccc1)c1nn2c(-c3cccs3)nnc2s1 (centres undefined) | 167
37 | O=C(Cc1ccc([N+](=O)[O-])cc1)N1CCc2cc3nccc(N4CCN5CCC[C@@H]5C4)c3cc21 | 843
38 | CCCCCOc1ccc(C=NNc2nc(O)cc(-c3ccccc3)n2)cc1 | 887
39 | CC(C)CNCc1cccc(-c2cccc(CN(CCCN3CCN(C)CC3)C(=O)/C=C/c3ccccc3)c2)c1 | 926
40 | CC[C@H]1CN2CC[C@@H]1C[C@H]2[C@H](O)c1cc(N2CCC(O)CC2)nc2ccc(OC)cc12 | 166
41 | O=C(/C=C/c1ccc(Cl)c(Cl)c1)NCCCCCN1CCCN(C(=O)Nc2cccc(C(F)(F)F)c2)CC1 | 866
42 | O=C(O)C[C@H](NC(=O)CCCNC(=O)c1cccc(-c2ccc(Cl)c(Cl)c2)c1)C(=O)O | 881
43 | COc1cc(Nc2nccc(NCC(O)c3ccc(C(F)(F)F)cc3)n2)cc(OC)c1OC (centres undefined) | 920
44 | Cc1cc(C2CCN(CCCCNC(=O)c3ccc(-c4ccc(C(F)(F)F)cc4)cc3)CC2)c(C)cc1OCCOC1CCCCO1 (centres undefined) | 785
45 | CCCC(C)N(Cc1ccc(C(C)(C)C)cc1)C(=O)c1cccc(OC)c1 (centres undefined) | 336
46 | CS(=O)(=O)N1CC2(CCN(CCC(NC(=O)NCc3ccc(Cl)c(Cl)c3)c3ccc(Cl)c(Cl)c3)CC2)c2ccccc21 (centres undefined) | 799
47 | Cc1cc(Nc2ccc(Cl)c(Cl)c2)n2nc(C)nc2n1 | 258
48 | CNC(=O)c1cnc(Nc2ccc3[nH]c(=O)[nH]c3c2)nc1Nc1cccc(OC(C)C)c1 | 926
49 | COc1ccc2c(N/N=C/c3ccccc3[N+](=O)[O-])cc(C)nc2c1 | 716

Row | SMILES | XC50 [nM]
50 | CCOC(=O)c1ccc(NC(=O)c2ccccc2C(=O)O)cc1 | 922
51 | COc1ccc2nccc(N3CCC(O)(CCNCc4ccc5c(n4)NC(=O)CO5)CC3)c2n1 | 819
52 | CCCNCc1ccc(-c2ccc(CN(CCOC)C(=O)c3cscn3)cc2)nc1 | 178
53 | CC1(C)NC(N)=NC(=N)N1OCc1cc(Cl)cc2c1OCOC2 | 3.2
54 | O=[N+]([O-])c1ccccc1/C=N/Nc1ccnc2ccc(C(F)(F)F)cc12 | 710
55 | COc1ccc(F)cc1-c1ccccc1CNC(=O)CN(C)S(=O)(=O)c1cc(C)cc(Cl)c1C | 665
56 | O=C(NC1CCN(CC2(c3ccc(Cl)cc3)CCCCC2)CC1)c1cc[nH]n1 | 84
57 | CCCc1cc(NC2CCN(C)CC2)nc(Nc2ccc(C)cc2)n1 | 898
58 | CC(C)c1cn2c3c(cc(C(=O)N[C@@H](Cc4ccccc4)[C@H](O)CNC4CCOCC4)cc13)N(C)S(=O)(=O)CC2 | 54.5
59 | CNC(=O)c1ccccc1Nc1nc(Nc2cccnc2)ncc1C | 101
60 | CCOC(=O)C1=C(C)NC(Cn2ccnc2)=C(C(=O)OCC)C1c1ccc(C(C)(C)C)cc1 (centres undefined) | 807
61 | COc1ccccc1-c1cc(C(=O)N2CCN(S(=O)(=O)c3ccc(C)cc3)CC2)[nH]n1 | 1160
62 | Nc1ncc(-c2cn[nH]c2)cc1-c1nc2ccc(Cl)cc2[nH]1 | 799
63 | COc1cc(Nc2ccnc3ccc(C(F)(F)F)cc23)cc(OC)c1OC | 698
64 | COc1ccc(CCN(C)CCOc2ccc(NC(=O)c3cccc4c(=O)c5cc(SC)ccc5[nH]c34)cc2)cc1OC | 740
65 | Clc1ccc(Nc2nc(-c3ccccn3)cs2)nc1 | 774
66 | CCN(CC)CCN(Cc1ccc(-c2ccc(Cl)s2)cc1)C(=O)Cn1c(CCc2cccc(F)c2F)nc(=O)c2ccccc21 | 1140
67 | FC(F)(F)c1ccc2[nH]c(-c3ccc(-c4cccc(CNCCc5cccnc5)c4)s3)nc2c1 | 170
68 | COc1ccc2nccc(N(C)CC3(O)CCN(CCc4ccc5c(c4)NC(=O)CS5)CC3)c2n1 | 136
69 | Cc1cc2ccc(CNCCc3ccccc3Br)cc2nc1N | 514
70 | CCCC1N=C(N)N=C(N)N1c1ccc(OC)cc1 (centres undefined) | 234
71 | O=C(/C=C/c1ccc(Cl)c(Cl)c1)NCCCCCCN1CCCN(C(=O)Nc2ccc(F)c(F)c2)CC1 | 1240
72 | Cc1cc(N(C)C)nc(Nc2ccc(NC(=O)c3c(F)cccc3F)cc2)n1 | 1380
73 | COc1cc(NC(=O)/C=C/c2cc3ccccc3n2C)ccc1OCCN(C(C)C)C(C)C | 387

Row | SMILES | XC50 [nM]
74 | Cc1ccc(CN(Cc2ccc(C(=O)N(C)C)cc2)Cc2ccc3c(c2)OCCO3)cc1C | 804
75 | Cc1ccc(NC(=O)c2ccc3ncccc3c2)cc1OC1CCN(Cc2ccc(F)cc2)C1 (centres undefined) | 1360
76 | CCN(CC)CCCNCc1ccc(-c2ccc(C(F)(F)F)cc2)cc1 | 993
77 | CCCCN1C(=O)C2CC(=O)CC(C3CCCCC3)C2C1=O (centres undefined) | 888
78 | O=S(=O)(NC1CCC(CN2CCC(c3c[nH]c4ccccc34)CC2)CC1)c1ccc(Cl)c(Cl)c1 (centres undefined) | 817
79 | COc1ccc(Nc2nccc(N3CCC(NC(=O)c4cc5ccccc5s4)C3)n2)cc1 (centres undefined) | 759
80 | CCC[C@@H]([C@@H](CC1CCCCC1)C(=O)N[C@@H](CCCCNS(C)(=O)=O)C(=O)Nc1nccs1)N(O)C=O | 81.1
81 | O=C(Nc1cccc(-c2nn3ccccc3c2-c2ccnc(Nc3ccccc3)n2)c1)c1c(F)cccc1F | 715
82 | O=C(NCc1ccc2c(c1)OCO2)c1nn(CCN2CCC(N3CCCC3)CC2)cc1-c1ccc(Cl)c(Cl)c1 | 935
83 | CC(CNC(=N)c1cccc(C(=N)NCC(C)Oc2cccc(C3CCCCC3)c2)n1)Oc1cccc(C2CCCCC2)c1 (centres undefined) | 917
84 | COc1ccc2nccc(N3CCC(CCNCc4ccc5c(n4)NC(=O)CO5)CC3)c2c1 | 705
85 | CC1(C)N=C(N)N=C(N)N1c1ccc(Cl)c(Cl)c1 | 3.2
86 | c1cn(-c2ccc(CNc3nccc(Nc4ccc(OCCN5CCOCC5)cc4)n3)cc2)cn1 | 878
87 | O=C(Cn1c(CCc2cccc(F)c2F)nc(=O)c2ccccc21)N(Cc1ccc(-c2ccc(C(F)(F)F)cc2)cc1)C1CCN(C2=NCCS2)CC1 | 1330
88 | Cc1ccc(NC(=O)c2ccc(CN3CCCN(Cc4cccc(O)c4)CC3)cc2)cc1C | 864
89 | N#Cc1ccc(NC(=O)Nc2ccc3c(c2)CCN(C2CCC2)CC3)cc1 | 628
90 | CN1CCC[C@H]1COc1ccc(CN2CC[C@H](NC(=O)c3ccc(Cl)c(Cl)c3)C2)c2ccccc12 | 946
91 | COc1ccc(S(=O)(=O)NCCC2CCN(CCCCCNC(=O)C=Cc3ccc(Cl)c(Cl)c3)CC2)cc1 | 957
92 | Cc1ccc2[nH]c(-c3ccc(C=CC(=O)NCc4ccc(Cl)c(Cl)c4)cc3)nc2c1 | 901
93 | O=C(Nc1cccc(C(F)(F)F)c1)N1CCOC(CCN2CCC(c3ccccc3)CC2)(c2ccc(Cl)c(Cl)c2)C1 (centres undefined) | 1110
94 | COc1ccccc1CCNc1nc(C)cc(N[C@@H](CC(C)C)C(=O)NCc2cccc(F)c2)n1 | 973
